Where “and” joins values, the source holds several entries; their conditions need not be identical. Equal entries are not always repeated.

For the experiment, the target named is T1, MBNL-CUG RNA complex (Homo sapiens, UniProt Q9NR56).
T1 construct: Both the full length MBNL and MBNL (1-260) constructs were cloned using BamHI and NotI restriction sites; GST (N, cleaved yes); made in house; host or cells: E. coli BL21-Star
T1 sequence (Q9NR56 1-382 isoform Q9NR56-5): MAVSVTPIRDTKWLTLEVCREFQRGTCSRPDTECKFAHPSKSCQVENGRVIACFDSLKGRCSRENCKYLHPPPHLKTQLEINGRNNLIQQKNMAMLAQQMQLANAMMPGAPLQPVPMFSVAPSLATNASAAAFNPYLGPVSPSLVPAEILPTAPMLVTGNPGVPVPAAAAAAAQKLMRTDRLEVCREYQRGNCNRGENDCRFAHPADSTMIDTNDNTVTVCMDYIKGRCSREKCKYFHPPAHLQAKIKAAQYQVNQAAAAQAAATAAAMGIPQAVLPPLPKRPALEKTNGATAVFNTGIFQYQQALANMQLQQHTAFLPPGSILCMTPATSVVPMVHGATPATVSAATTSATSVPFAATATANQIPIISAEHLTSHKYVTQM
Kind of experiment: Gel shift assay, disruption of MBNL binding to short CUG repeat RNA. How it is done:
MBNL1 (MBNL) was PCR amplified and was cloned into GST fusion vector pGEX-6P-1 (GE Healthcare, Piscataway, N.J.), using DNA encoding a MBNL isoform with amino acids 1-382). Both the full length MBNL and MBNL (1-260) constructs were cloned using BamHI and NotI restriction sites. Using BL21-Star expression cells (Invitrogen, Carlsbad, Calif.), protein expression was induced with 0.25 mM IPTG at an OD600 of about 0.5-1, for 3-4 hours at 37° C. Cells were lysed in 30 ml of buffer (500 mM NaCl, 25 mM Tris pH 7.5, 10 mM β-mercaptoethanol (BME) and 5% glycerol) using 1 mg/ml of lysozyme, followed by sonication (3×30 seconds). Cell extract was centrifuged for 15 minutes at 17,000 rpm, and lysate which contained GST-MBNL was collected. GST-MBNL was bound to GST affinity beads for 30 minutes at 4° C. […] The protein was then run over an anion exchange (Q) column. […] MBNL was collected in the column flow through, concentrated and dialyzed into storage buffer (30% glycerol, 300 mM NaCl, 20 mM Tris pH 7.5, 5 mM BME) and stored at −80° C. Aliquots were removed from −80° C. and temporarily placed at −20° C. until used for an experiment.
All RNA substrates that were radiolabeled were ordered from IDT DNA (Coralville, Iowa), and 5′ end-labeled using [γ-^32P]ATP. All radiolabeled RNAs were purified on 8% polyacrylamide denaturing gels.
Solutions for the protein-RNA binding experiments contained 125 mM NaCl, 5 mM MgCl2, 20 mM Tris (pH 7.5), 7.5% glycerol, 2 mg/ml bovine serum albumin, and 0.1 mg/ml heparin. Prior to incubation, RNA substrates were annealed by incubation at 95° C. for 2 minutes and then placed directly on ice for 20 minutes in 66 mM NaCl, 6.7 mM MgCl2, and 27 mM Tris (pH 7.5). Protein was then added to the RNA in the presence or absence of the small molecule. The binding reaction was carried out in a 10 μL volume and was incubated for 10 minutes at room temperature before 2-4 μL were loaded on a pre-chilled 4° C. gel. RNA and RNA-protein complexes were separated on 3% acrylamide (37.5:1), 0.3% agarose (low melting point), 0.5× Tris-Borate (TB) gels, run for approximately 2-3 hours at 4° C. at 25-50 volts. Gels were dried and autoradiographed. For the neomycin B and CUG8 gel shift, an 8% acrylamide (29:1), 0.5×TB gel was used and run for 3 hours at 4° C. at 175 volts. All small molecules were dissolved in either water or ethanol, according to the manufacturer's guidance for solubility.
For binding curves, gels were quantified using ImageQuant® software (Molecular Dynamics, Piscataway, N.J.). The percent RNA bound was determined by taking the ratio of RNA-protein complex to total RNA, per lane. Any counts in the well were discarded as it was unapparent if the RNA was bound by protein, small molecule or was in an aggregate. Binding curves were graphed using KaleidaGraph software (Synergy Software, Reading, Pa.). For the neomycin B and CUG8 gel shift, the apparent Kd was determined using Equation 1, where Y=fraction bound, m0=small molecule concentration, m1=total RNA concentration, and m2=Kd.
For determining the EC50, Equation 3 was used, where m0=small molecule concentration, m1=EC50, m2=Hill coefficient, and m3=fraction MBNL bound without small molecule present. Y=m3/[1+(m0/m1)^m2] Equation 3 Results

`N=C(N)c1ccc(OCCCCCOc2ccc(C(=N)N)cc2)cc1` [pentamidine]: under “gel shift screen, increasing amounts of small molecule”, the “Disruption of the MBNL-CUG interaction” value is on record as “disrupt the MBNL-CUG interaction at micromolar concentrations”. Also, for the setting “gel shift, short CUG repeat RNA (CUG4), read-out: EC50 for disruption of MBNL binding to CUG repeat construct”, the EC50 is ~58 µM and 58 µM.
